Data taken from ChEMBL document CHEMBL5331112, “Recent Advances in Pro-PROTAC Development to Address On-Target Off-Tumor Toxicity” (J Med Chem, 2023).
Each block holds one compound with its values, some of them ahead of it.

Assays:
MCF7 [1] = assay: Anticancer activity against human MCF7 cells xenografted in mouse assessed as cell growth inhibition […] relative to control; type: functional
MCF7 [2] = assay: Anticancer activity against human MCF7 cells assessed as cell growth inhibition CCK8 assay; type: functional, cell-based
[3] = biological target: von Hippel-Lindau disease tumor suppressor/Bromodomain-containing protein 4 (Homo sapiens, UniProt O60885+P40337); assay: PROTAC activity at VHL/BRD4 in human MCF7 cells assessed as degradation of BRD4 incubated by Western blot assay; type: cell-based
Chain of von Hippel-Lindau disease tumor suppressor/Bromodomain-containing protein 4 (P40337 whole entry, looked up, other chains not shown): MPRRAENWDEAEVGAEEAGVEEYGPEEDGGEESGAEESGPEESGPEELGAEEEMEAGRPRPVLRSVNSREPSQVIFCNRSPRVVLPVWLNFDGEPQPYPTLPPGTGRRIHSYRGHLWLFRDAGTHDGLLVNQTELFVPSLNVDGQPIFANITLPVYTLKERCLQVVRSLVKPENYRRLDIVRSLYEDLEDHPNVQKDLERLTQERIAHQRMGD

SU-DHL-1 = assay: Anticancer activity against human SU-DHL-1 cells assessed as cell growth inhibition; type: functional, cell-based
[4] = Cytotoxicity against human HFF-1 cells assessed as cell growth inhibition; type: toxicity, cell-based

IC50 (MCF7 [2]): 56.9 nM
DC50 [3]: 22 nM
SMILES: CNC(=O)CCC(=O)OCCSSCCOC(=O)O[C@@H]1C[C@@H](C(=O)N[C@@H](C)c2ccc(-c3scnc3C)cc2)N(C(=O)[C@H](NC(=O)COCCOCCOCCNC(=O)C[C@@H]2N=C(c3ccc(Cl)cc3)c3c(sc(C)c3C)-n3c(C)nnc32)C(C)(C)C)C1
TGI (MCF7 [1]): 77.5%

IC50 (SU-DHL-1): 200 nM
SMILES: Cc1cc(Nc2ncc(Cl)c(Nc3ccccc3S(=O)(=O)C(C)C)n2)c(OC(C)C)cc1C1CCN(C(=O)CCCC(=O)N[C@H](C(=O)N2C[C@H](OC(=O)CCCCn3cc(CNC(=O)CC[C@H](NC(=O)c4ccc(NCc5cnc6nc(N)[nH]c(=O)c6n5)cc4)C(=O)O)nn3)C[C@H]2C(=O)N[C@@H](C)c2ccc(-c3scnc3C)cc2)C(C)(C)C)CC1

SMILES: Cc1ncsc1-c1ccc([C@H](C)NC(=O)[C@@H]2C[C@@H](OC(=O)CCCCn3cc(CNC(=O)CC[C@H](NC(=O)c4ccc(NCc5cnc6nc(N)[nH]c(=O)c6n5)cc4)C(=O)O)nn3)CN2C(=O)[C@@H](NC(=O)COCCCOCCNC(=O)C[C@@H]2N=C(c3ccc(Cl)cc3)c3c(sc(C)c3C)-n3c(C)nnc32)C(C)(C)C)cc1
IC50 [4]: > 10000 nM
